13 compounds from patent publication US20230192661A1, “1, 4, 5, 6-TETRAHYDROPYRIMIDINE-2-AMINE DERIVATIVE” (UBE Corporation, priority 2020, published 2023) can be followed below.

One series concerns the target T1, αvβ1 (UniProt G3HZ55+P06756).
T1 construct: expressed in transfected cells; host or cells: CHO cells deficient in α5 gene, transfected with αv gene
As to the kind of experiment: αvβ1 cell adhesion inhibition test (αv-transfected CHO cells on human fibronectin). Type of series: cell-based. Conditions: human fibronectin coating, 1 mM MnCl2, 1 hour, read-out: IC50 (rate of inhibition of cell adhesion, αvβ1). In outline:
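α5-deficient CHO cells expressing αv, at 1×10^6 cells/mL in DMEM with 1 mM MnCl2 plus test compound, allowed to adhere 1 h at 37° C to human fibronectin (coated at 1.25 μg/mL). Adherent cells read by crystal violet absorbance, normalized to uncoated (100%) and DMSO (0%) wells. IC50 reported as banded classes.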

Series [1] can be described thus: Transcellular transport test using Caco2 cell. Type of series: in vitro ADME. The following applies: human, Caco-2; Caco2 monolayer, A-to-B, 10 μM compound, pH 7.4, 90 minutes. The procedure, abridged: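 Caco2 monolayers grown 20 to 22 days on 0.4 μm polycarbonate inserts; 10 μM compound (0.1% DMSO) added apically in HBSS/20 mM HEPES pH 7.4, 90 min at 37° C. Basolateral compound quantified by LC-MS/MS; A-to-B Papp computed from transport slope, membrane area and UV-HPLC-measured donor concentration.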

T1 sequence (P06756 31-889 limits assumed): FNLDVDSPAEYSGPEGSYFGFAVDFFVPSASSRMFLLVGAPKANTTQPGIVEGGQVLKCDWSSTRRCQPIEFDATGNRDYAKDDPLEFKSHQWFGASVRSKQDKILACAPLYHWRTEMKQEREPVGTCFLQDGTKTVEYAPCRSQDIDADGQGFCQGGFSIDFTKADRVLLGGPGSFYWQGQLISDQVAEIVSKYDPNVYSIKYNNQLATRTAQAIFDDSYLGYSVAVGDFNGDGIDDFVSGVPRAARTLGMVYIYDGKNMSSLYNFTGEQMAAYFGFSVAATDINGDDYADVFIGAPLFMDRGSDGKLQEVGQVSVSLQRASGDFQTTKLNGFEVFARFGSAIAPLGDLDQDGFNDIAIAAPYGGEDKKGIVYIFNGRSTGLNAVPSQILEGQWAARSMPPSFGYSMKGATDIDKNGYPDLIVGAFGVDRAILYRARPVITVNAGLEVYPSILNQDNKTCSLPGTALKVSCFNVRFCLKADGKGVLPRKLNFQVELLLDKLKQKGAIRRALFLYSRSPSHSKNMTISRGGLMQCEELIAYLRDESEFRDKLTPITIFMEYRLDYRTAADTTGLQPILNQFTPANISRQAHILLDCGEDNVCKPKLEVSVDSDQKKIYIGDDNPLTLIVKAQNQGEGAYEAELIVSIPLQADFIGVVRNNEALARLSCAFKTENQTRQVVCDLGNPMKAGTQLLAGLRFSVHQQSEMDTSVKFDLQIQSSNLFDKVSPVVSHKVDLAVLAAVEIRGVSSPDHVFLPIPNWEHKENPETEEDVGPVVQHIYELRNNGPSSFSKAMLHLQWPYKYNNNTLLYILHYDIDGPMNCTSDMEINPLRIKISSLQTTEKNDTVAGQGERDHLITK
T1 sequence (P06756 891-1048 limits assumed): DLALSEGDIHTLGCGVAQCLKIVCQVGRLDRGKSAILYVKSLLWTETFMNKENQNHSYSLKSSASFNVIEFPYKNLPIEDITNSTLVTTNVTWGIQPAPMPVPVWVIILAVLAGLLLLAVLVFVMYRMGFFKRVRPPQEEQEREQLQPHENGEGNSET
T1 sequence (G3HZ55 21-798): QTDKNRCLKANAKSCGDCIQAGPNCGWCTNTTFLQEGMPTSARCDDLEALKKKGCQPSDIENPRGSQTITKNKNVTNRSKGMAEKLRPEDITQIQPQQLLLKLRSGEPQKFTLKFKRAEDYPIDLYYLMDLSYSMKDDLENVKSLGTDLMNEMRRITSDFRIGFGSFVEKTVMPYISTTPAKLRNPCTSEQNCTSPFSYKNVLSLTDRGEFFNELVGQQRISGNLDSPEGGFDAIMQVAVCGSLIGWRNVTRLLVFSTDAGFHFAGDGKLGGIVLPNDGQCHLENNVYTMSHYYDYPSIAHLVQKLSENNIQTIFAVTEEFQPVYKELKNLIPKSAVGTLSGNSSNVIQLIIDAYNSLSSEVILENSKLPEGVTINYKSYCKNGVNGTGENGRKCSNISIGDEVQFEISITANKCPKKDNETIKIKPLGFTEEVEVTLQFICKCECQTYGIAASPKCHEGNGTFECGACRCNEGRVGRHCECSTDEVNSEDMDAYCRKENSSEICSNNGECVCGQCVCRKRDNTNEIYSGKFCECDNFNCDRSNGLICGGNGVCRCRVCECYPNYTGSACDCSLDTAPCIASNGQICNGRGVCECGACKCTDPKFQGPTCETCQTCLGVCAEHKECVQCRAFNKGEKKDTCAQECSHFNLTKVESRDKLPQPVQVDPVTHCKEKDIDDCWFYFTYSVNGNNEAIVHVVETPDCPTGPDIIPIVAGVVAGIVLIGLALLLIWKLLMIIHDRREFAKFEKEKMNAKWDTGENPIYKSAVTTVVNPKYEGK

The term IC50 denotes the concentration needed to halve the response being measured. The Papp A→B is how fast a substance crosses the layer from the apical side. A lower Papp A→B goes with poor permeation. Take `COc1cc([C@H](CC(=O)O)NC(=O)CNC(=O)c2cc(NC3=NCC(F)CN3)c3cn[nH]c3c2)cc(C(F)(F)F)c1` (stereo partly drawn) [Example 5-(b), (3S)-3-(2-(4-((5-fluoro-1,4,5,6-tetrahydropyrimidin-2-yl)amino)-1H-indazole-6-carboxamido)acetamido)-3-(3-methoxy-5-(trifluoromethyl)phenyl)propanoic acid]: the IC50 on αvβ1 was < 3 nM. The compound also came in with a Papp A→B at 90 min, 10 μM in series [1] of 0.5 to 1 ×10⁻⁶ cm/s.
`O=C(O)C[C@H](NC(=O)CNC(=O)c1cc(NC2=NCC(F)CN2)c2cn[nH]c2c1)c1cc(C(F)(F)F)cc(C(F)(F)F)c1` (stereo partly drawn) [Example 7-(b), (3S)-3-(3,5-bis(trifluoromethyl)phenyl)-3-(2-(4-((5-fluoro-1,4,5,6-tetrahydropyrimidin-2-yl)amino)-1H-indazole-6-carboxamido)acetamido)propanoic acid]: at αvβ1, the IC50 was < 3 nM. This compound also came in with a Papp A→B at 90 min, 10 μM in series [1] of 0.5 to 1 ×10⁻⁶ cm/s.
On to `O=C(O)C[C@H](NC(=O)CNC(=O)c1cc(NC2=NCC(F)CN2)c2cn[nH]c2c1)c1cc(C(F)(F)F)ccc1F` (stereo partly drawn) [Example 11-(b), (3S)-3-(2-(4-((5-fluoro-1,4,5,6-tetrahydropyrimidin-2-yl)amino)-1H-indazole-6-carboxamido)acetamido)-3-(2-fluoro-5-(trifluoromethyl)phenyl)propanoic acid], for which the IC50 at αvβ1 was in the range of 3 to 10 nM. Also, in series [1], the Papp A→B at 90 min, 10 μM was > 1 ×10⁻⁶ cm/s.
The corresponding values for `O=C(O)C[C@H](NC(=O)CNC(=O)c1cc(NC2=NCC(F)CN2)c2cn[nH]c2c1)c1cccc(C(F)(F)F)c1` (stereo partly drawn) [Example 35-(b), (3S)-3-(2-(4-((5-fluoro-1,4,5,6-tetrahydropyrimidin-2-yl)amino)-1H-indazole-6-carboxamido)acetamido)-3-(3-(trifluoromethyl)phenyl)propanoic acid] are 3 to 10 nM and > 1 ×10⁻⁶ cm/s.
Taken in the same sequence, the figures for `O=C(O)C[C@H](NC(=O)CNC(=O)c1cc(NC2=NCC(F)CN2)c2c(Cl)n[nH]c2c1)c1cc(Cl)cc(C(F)(F)F)c1` (stereo partly drawn) [Example 49-(b), (3S)-3-(2-(3-chloro-4-((5-fluoro-1,4,5,6-tetrahydropyrimidin-2-yl)amino)-1H-indazole-6-carboxamido)acetamido)-3-(3-chloro-5-(trifluoromethyl)phenyl)propanoic acid] were < 3 nM and 0.5 to 1 ×10⁻⁶ cm/s.
Taken in the same sequence, the figures for `Cc1cc(C)n(-c2cccc([C@H](CC(=O)O)NC(=O)CNC(=O)c3cc(NC4=NCC(F)CN4)c4cn[nH]c4c3)c2)n1` (stereo partly drawn) [Example 44-(b), (3S)-3-(3-(3,5-dimethyl-1H-pyrazol-1-yl)phenyl)-3-(2-(4-((5-fluoro-1,4,5,6-tetrahydropyrimidin-2-yl)amino)-1H-indazole-6-carboxamido)acetamido)propanoic acid] were < 3 nM and 0.5 to 1 ×10⁻⁶ cm/s.
Take `O=C(O)C[C@H](NC(=O)CNC(=O)c1cc(NC2=NCCCN2)c2cn[nH]c2c1)c1cc(Cl)cc(C(F)(F)F)c1` [Example 51-(b), (S)-3-(3-chloro-5-(trifluoromethyl)phenyl)-3-(2-(4-((1,4,5,6-tetrahydropyrimidin-2-yl)amino)-1H-indazole-6-carboxamido)acetamido)propanoic acid]: on αvβ1, the IC50 lay in the range of 30 to 100 nM. Moreover, the Papp A→B at 90 min, 10 μM in series [1] is > 1 ×10⁻⁶ cm/s.
Taken in the same sequence, the figures for `O=C(O)C[C@H](NC(=O)CNC(=O)c1cc(NC2=NCC(F)CN2)c2cn[nH]c2c1)c1cc(Br)cc(C(F)(F)F)c1` (stereo partly drawn) [Example 2-(b), (3S)-3-(3-bromo-5-(trifluoromethyl)phenyl)-3-(2-(4-((5-fluoro-1,4,5,6-tetrahydropyrimidin-2-yl)amino)-1H-indazole-6-carboxamido)acetamido)propanoic acid] were 3 to 10 nM and 0.5 to 1 ×10⁻⁶ cm/s.
Regarding `O=C(O)C[C@H](NC(=O)CNC(=O)c1cc(NC2=NCC(F)CN2)cc2[nH]ncc12)c1cc(I)cc(C(F)(F)F)c1` (stereo partly drawn) [Example 54-(b), (3S)-3-(2-(6-((5-fluoro-1,4,5,6-tetrahydropyrimidin-2-yl)amino)-1H-indazole-4-carboxamido)acetamido)-3-(3-iodo-5-(trifluoromethyl)phenyl)propanoic acid], the IC50 on αvβ1 was < 3 nM. In series [1], this compound displayed a Papp A→B at 90 min, 10 μM of 0.1 to 0.5 ×10⁻⁶ cm/s.
With `Cc1ccc([C@H](CC(=O)O)NC(=O)CNC(=O)c2cc(NC3=NCC(F)CN3)c3cn[nH]c3c2)cc1C(F)(F)F` (stereo partly drawn) [Example 14-(b), (3S)-3-(2-(4-((5-fluoro-1,4,5,6-tetrahydropyrimidin-2-yl)amino)-1H-indazole-6-carboxamido)acetamido)-3-(4-methyl-3-(trifluoromethyl)phenyl)propanoic acid], on αvβ1, the IC50 is < 3 nM. Further, the Papp A→B at 90 min, 10 μM in series [1] is > 1 ×10⁻⁶ cm/s.
The corresponding values for `O=C(O)C[C@H](NC(=O)CNC(=O)c1cc(NC2=NCC(F)CN2)c2cn[nH]c2c1)c1ccc(OC(F)F)cc1` (stereo partly drawn) [Example 46-(b), (3S)-3-(4-(difluoromethoxy)phenyl)-3-(2-(4-((5-fluoro-1,4,5,6-tetrahydropyrimidin-2-yl)amino)-1H-indazole-6-carboxamido)acetamido)propanoic acid] are 3 to 10 nM and > 1 ×10⁻⁶ cm/s.
`O=C(O)C[C@H](NC(=O)CNC(=O)c1cc(NC2=NCC(F)CN2)c2cn[nH]c2c1)c1cc(Cl)c(F)c(C(F)(F)F)c1` (stereo partly drawn) [Example 15-(b), (3S)-3-(3-chloro-4-fluoro-5-(trifluoromethyl)phenyl)-3-(2-(4-((5-fluoro-1,4,5,6-tetrahydropyrimidin-2-yl)amino)-1H-indazole-6-carboxamido)acetamido)propanoic acid]: the IC50 on αvβ1 is < 3 nM. Besides, in series [1], the Papp A→B at 90 min, 10 μM is > 1 ×10⁻⁶ cm/s.
Taken in the same sequence, the figures for `O=C(O)C[C@H](NC(=O)CNC(=O)c1cc(NC2=NCC(F)CN2)c2cn[nH]c2c1)c1cc(OC(F)(F)F)ccc1F` (stereo partly drawn) [Example 33-(b), (3S)-3-(2-(4-((5-fluoro-1,4,5,6-tetrahydropyrimidin-2-yl)amino)-1H-indazole-6-carboxamido)acetamido)-3-(2-fluoro-5-(trifluoromethoxy)phenyl)propanoic acid] were < 3 nM and > 1 ×10⁻⁶ cm/s.
